# Reference: patent publication US10966968B2 (Amarin Pharmaceuticals Ireland Limited, priority 2013, dated 2021)
# How the values were obtained:
# [1] = independent of dose; cited from earlier work
# [2] = Phase 1 open-label crossover drug-drug interaction study: rosiglitazone plasma pharmacokinetics without and with ethyl eicosapentaenoate
# Method: Eligibility assessments and clinical laboratory testing were performed within a 28-day screening period. All eligible subjects received the same treatment. […] On days 12-29, subjects received oral doses of 4 g icosapent ethyl (2 liquid-filled 1 g gelatin capsules) twice daily, with or following the morning and evening meals. All study drugs were taken with 240 mL water. Rosiglitazone was administered by study personnel at the research unit, and thus compliance calculations were not necessary. icosapent ethyl was either administered by study personnel during scheduled visits or self-administered by subjects while away from the study site. Compliance to icosapent ethyl (days 12-29) was evaluated by counting and reconciling unused capsules against subject diaries and was calculated as: (used capsules/total dosing days×4)×100.
# Doses selected for study were based on established PK profiles of both agents.
# Eligible subjects were healthy nonsmoking men and women between the ages of 19 and 55 years with a body mass index >18 and ≤35 kg/m^2 and in good health as determined by medical history and medical examination. Women who were pregnant, nursing, or planning a pregnancy were excluded; female subjects of childbearing potential were required to use an acceptable method of birth control. Subjects were prohibited from ingesting medications and supplements that contained EPA and/or docosahexaenoic acid (DHA), fish meals, foods fortified with EPA and/or DHA, lipid-medications and dietary supplements with known or potential lipid-altering effects including statins, niacin >200 mg/day, fibrates, ezetimibe, and bile acid sequestrants or medications or supplements that may influence the measurements of EPA concentrations in plasma until after the last PK sample collection.
# [3] = Safety evaluation in the drug-drug interaction study (adverse events, laboratory, vital signs); assay type: in vivo, human; details: rosiglitazone 8 mg with ethyl eicosapentaenoate 4 g/day, healthy subjects
# Excerpt: Safety evaluations consisted of monitoring adverse events (AEs), clinical laboratory measurements (chemistry, hematology, and urinalysis), vital signs (systolic and diastolic blood pressure, heart rate, respiratory rate and oral body temperature), and physical examination findings.
# CYP2C8 = target: T1, CYP2C8 (Homo sapiens, UniProt P10632); assay: Effect of ethyl eicosapentaenoate on metabolism/exposure of rosiglitazone (CYP2C8 substrate) in the drug-drug interaction study; assay type: in vivo; details: at steady state, 4 g/day, healthy subjects
# T1 construct: from tissue; host or cells: living healthy human subjects (in vivo; endogenous enzyme)
# T1 sequence (P10632 1-490): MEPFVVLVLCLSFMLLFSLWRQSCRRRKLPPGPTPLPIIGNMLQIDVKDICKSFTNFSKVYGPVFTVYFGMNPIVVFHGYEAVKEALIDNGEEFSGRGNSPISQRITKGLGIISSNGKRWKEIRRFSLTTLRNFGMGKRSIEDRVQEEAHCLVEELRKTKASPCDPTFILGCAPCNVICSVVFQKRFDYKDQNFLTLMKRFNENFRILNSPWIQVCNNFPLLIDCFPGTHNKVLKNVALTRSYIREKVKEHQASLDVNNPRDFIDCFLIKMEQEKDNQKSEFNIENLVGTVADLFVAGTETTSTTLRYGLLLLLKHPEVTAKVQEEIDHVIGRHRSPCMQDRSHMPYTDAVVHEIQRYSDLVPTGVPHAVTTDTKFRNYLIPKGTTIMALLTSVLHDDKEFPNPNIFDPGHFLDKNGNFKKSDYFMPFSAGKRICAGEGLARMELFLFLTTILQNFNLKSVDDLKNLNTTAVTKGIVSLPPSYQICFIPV
# Excerpt: Nonparametric statistics included median and data range (minimum-maximum).
# [4] = both, human, plasma, oral, 8 mg
smiles,measurement,setting,value
"CN(CCOc1ccc(CC2SC(=O)NC2=O)cc1)c1ccccn1 (centres unmarked) [Rosiglitazone, rosiglitazone]",elimination half-life,[1],3 to 4 h
same,Tmax,"[2]; both, human, plasma, oral",0.8 h
same,half-life,"[2]; both, human, plasma, oral",4.1 h
same,AUC(0-t),[2]; [4],3150 ng·h/mL
same,Tmax,[2]; [4],0.8 h
same,half-life,[2]; [4],4.4 h
same,Cmax,"[2]; both, human, plasma, oral, 8 mg, Cmax, rosiglitazone 8 mg alone, mean (SD)",672 ng/mL
same,AUC(0-inf),"[2]; both, human, plasma, oral, 8 mg, LSGM AUC0-inf, rosiglitazone alone, least squares geometric mean from mixed models",3150 ng·h/mL
same,Cmax,"[2]; both, human, plasma, oral, 8 mg, LSGM Cmax, rosiglitazone alone, least squares geometric mean from mixed models",647 ng/mL
same,AUC(0-inf),"[2]; both, human, plasma, oral, AUC0-inf, rosiglitazone 8 mg with EPA 4 g (day 29), healthy subjects, plasma, mean (SD)",2920 ng·h/mL
same,Cmax,"[2]; both, human, plasma, oral, Cmax, rosiglitazone 8 mg with EPA 4 g, mean (SD)",673 ng/mL
same,AUC(0-inf),"[2]; both, human, plasma, oral, LSGM AUC0-inf, rosiglitazone + EPA, least squares geometric mean from mixed models",2840 ng·h/mL
same,Cmax,"[2]; both, human, plasma, oral, LSGM Cmax, rosiglitazone + EPA, least squares geometric mean from mixed models",650 ng/mL
same,AUC(0-inf),"[2]; both, human, plasma, po, 8 mg, AUC0-inf, rosiglitazone 8 mg single oral dose alone (day 11), healthy subjects, plasma, mean (SD)",3230 ng·h/mL
same,Kel,"[2]; rosiglitazone 8 mg alone, mean (SD)",0.16 (0.02) 1/h
same,Kel,"[2]; rosiglitazone 8 mg with EPA 4 g, mean (SD)",0.17 (0.03) 1/h
same,"difference in AUC0-inf and Cmax, alone compared to co-administration with ethyl eicosapentaenoate","[2]; rosiglitazone 8 mg, ethyl eicosapentaenoate 4 g/day",no significant difference
same,safety and tolerability of concomitant administration,[3],safe and well-tolerated
same,serious adverse events,[3],No serious adverse events
"CC/C=C\C/C=C\C/C=C\C/C=C\C/C=C\CCCC(=O)OCC [ethyl eicosapentaenoate, all-cis eicosa-5,8,11,14,17-pentaenoic acid ethyl ester]",exposure changes of rosiglitazone when administered concomitantly,CYP2C8,no clinically relevant exposure changes
same,inhibition of the metabolism of rosiglitazone,CYP2C8,does not inhibit
same,safety and tolerability of concomitant administration,[3],safe and well-tolerated
same,serious adverse events,[3],No serious adverse events
